Data taken from US10065990B2, “Cyclic peptide compound, and preparation method, pharmaceutical composition and use thereof” (HANGZHOU GUANYU BIO-MEDICAL CO., LTD, priority 2013, dated 2018).
Read-outs that look alike come from different tables or passages of the source.

Experiments:
HDAC7 = target: T1, HDAC7 (Homo sapiens, UniProt Q8WUI4); assay: HDAC biochemical activity measurement (fluorescent substrate deacetylation);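 also: fluorogenic deacetylation assay using acetyl-lysine substrate at 20 µM, enzyme and compound incubated 30 min at 37 °C, then developer added, fluorescence read at 360/460 nm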; conditions: HDAC7; 37° C. 30 minutes
T1 sequence (Q8WUI4 1-952): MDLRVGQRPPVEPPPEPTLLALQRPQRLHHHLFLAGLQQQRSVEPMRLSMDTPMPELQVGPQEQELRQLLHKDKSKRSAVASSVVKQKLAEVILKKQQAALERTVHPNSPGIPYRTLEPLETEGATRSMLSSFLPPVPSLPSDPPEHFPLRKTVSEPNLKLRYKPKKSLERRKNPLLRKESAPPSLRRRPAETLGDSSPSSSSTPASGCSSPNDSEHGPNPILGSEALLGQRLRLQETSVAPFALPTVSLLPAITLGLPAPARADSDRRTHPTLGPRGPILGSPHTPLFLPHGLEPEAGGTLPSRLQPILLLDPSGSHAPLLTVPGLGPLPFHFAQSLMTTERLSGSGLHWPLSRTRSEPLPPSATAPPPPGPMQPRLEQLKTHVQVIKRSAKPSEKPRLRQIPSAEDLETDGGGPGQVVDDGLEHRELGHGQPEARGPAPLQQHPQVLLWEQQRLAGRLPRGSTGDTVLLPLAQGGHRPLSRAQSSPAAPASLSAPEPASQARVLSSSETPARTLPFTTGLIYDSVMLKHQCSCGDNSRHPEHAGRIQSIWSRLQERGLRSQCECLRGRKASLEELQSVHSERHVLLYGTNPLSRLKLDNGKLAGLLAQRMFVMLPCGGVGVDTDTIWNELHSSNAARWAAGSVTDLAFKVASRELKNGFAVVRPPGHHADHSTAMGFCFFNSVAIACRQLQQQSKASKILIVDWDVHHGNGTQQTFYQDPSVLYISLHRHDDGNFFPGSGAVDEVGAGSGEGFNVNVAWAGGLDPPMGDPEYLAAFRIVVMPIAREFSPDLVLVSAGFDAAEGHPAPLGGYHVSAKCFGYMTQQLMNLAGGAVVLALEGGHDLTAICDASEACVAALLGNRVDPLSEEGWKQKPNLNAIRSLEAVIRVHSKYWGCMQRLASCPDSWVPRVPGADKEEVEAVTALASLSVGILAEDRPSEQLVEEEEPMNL

[1] = test system: A549 (human lung cancer cells); assay: MTT cancer cell growth inhibition; format: cell-based; conditions: Homo sapiens, A549, 72 h, MTT, 72 hours incubation, read-out: GI50 A54
Method in brief: (§1)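 Cells grown in DMEM or RPMI 1640 with 10% FBS were seeded at 1500/well and left overnight at 37° C., 5% CO2. Compounds at final 10^−5 to 10^−10 M were added in triplicate for 72 h. MTT was then added for 4 h, formazan dissolved in DMSO, and absorbance read at 570 nm to derive GI50.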

[2] = test system: BGC-823 (human gastric cancer cells); assay: MTT cancer cell growth inhibition; format: cell-based; conditions: Homo sapiens, BGC-823, 72 h, MTT, 72 hours incubation, read-out: GI50 BG
Method in brief: as §1

[3] = test system: Bel-7402 (human hepatoma cells); assay: MTT cancer cell growth inhibition; format: cell-based; conditions: Homo sapiens, Bel-7402, 72 h, MTT, 72 hours incubation, Bel-7402 cells; read-out: GI50 Bel-7402
Method in brief: as §1

[4] = test system: DU145 (human prostate cancer cells); assay: MTT cancer cell growth inhibition; format: cell-based; conditions: Homo sapiens, DU-145, 72 h, MTT, 72 hours incubation, read-out: GI50 Du1
Method in brief: as §1

[5] = test system: H1975 (non-small cell lung adenocarcinoma); assay: MTT cancer cell growth inhibition; format: cell-based; conditions: Homo sapiens, NCI-H1975, 72 h, MTT, 72 hours incubation, H1975 cells; read-out: GI50 H1975
Method in brief: as §1

[6] = test system: HCC827 (human non-small cell lung cancer cells); assay: MTT cancer cell growth inhibition; format: cell-based; conditions: Homo sapiens, HCC827, 72 h, MTT, 72 hours incubation, HCC827 cells; read-out: GI50 HCC827
Method in brief: as §1

[7] = test system: HT1080 (human fibrosarcoma cells); assay: MTT cancer cell growth inhibition; format: cell-based; conditions: Homo sapiens, HT-1080, 72 h, MTT, 72 hours incubation, read-out: GI50 HT1
Method in brief: as §1

[8] = test system: Hela (human cervical cancer cells); assay: MTT cancer cell growth inhibition; format: cell-based; conditions: Homo sapiens, HeLa, 72 h, MTT, 72 hours incubation, read-out: GI50 Hela
Method in brief: as §1

[9] = test system: Huh-7 (human hepatoma cells); assay: MTT cancer cell growth inhibition; format: cell-based; conditions: Homo sapiens, Huh-7, 72 h, MTT, 72 hours incubation, Huh-7 cells; read-out: GI50 Huh-7
Method in brief: as §1

[10] = test system: K562 (human leukemia cells); assay: MTT cancer cell growth inhibition; format: cell-based; conditions: Homo sapiens, K562, 72 h, MTT, 72 hours incubation, K562 cells; read-out: GI50 K562
Method in brief: as §1

[11] = test system: KBM-5 (human chronic myelogenous leukemia); assay: MTT cancer cell growth inhibition; format: cell-based; conditions: Homo sapiens, KBM5, 72 h, MTT, 72 hours incubation, KBM-5 cells; read-out: GI50 KBM-5
Method in brief: as §1

[12] = test system: KBM5-T315I (human chronic myelogenous leukemia); assay: MTT cancer cell growth inhibition; format: cell-based; conditions: Homo sapiens, 72 h, MTT, 72 hours incubation, KBM5-T315I cells; read-out: GI50 KBM5-T315I
Method in brief: as §1

[13] = test system: MCF-7 (human breast cancer cells); assay: MTT cancer cell growth inhibition; format: cell-based; conditions: Homo sapiens, MCF7, 72 h, 72 hours incubation, read-out: GI50 MCF
Method in brief: as §1

[14] = test system: MDA-MB-231 (breast cancer cells); assay: MTT cancer cell growth inhibition; format: cell-based; conditions: Homo sapiens, MDA-MB-231, 72 h, read-out: GI50 MDA-MB-231, MTT, 72 hours incubation, MDA-MB-231 cells
Method in brief: as §1

[15] = test system: MOLT-4 (human acute lymphoblastic leukemia cells); assay: MTT cancer cell growth inhibition; format: cell-based; conditions: Homo sapiens, MOLT-4, 72 h, MTT, 72 hours incubation, read-out: GI50 Mol
Method in brief: as §1

[16] = test system: N-87 (human gastric cancer cells); assay: MTT cancer cell growth inhibition; format: cell-based; conditions: Homo sapiens, 72 h, MTT, 72 hours incubation, N-87 cells; read-out: GI50 N-87
Method in brief: as §1

[17] = test system: PANC-1 (Pac-1, human pancreatic cancer cells); assay: MTT cancer cell growth inhibition; format: cell-based; conditions: Homo sapiens, PANC-1, 72 h, MTT, 72 hours incubation, read-out: GI50 PAN
Method in brief: as §1

[18] = test system: SGC-7901 (human gastric cancer cells); assay: MTT cancer cell growth inhibition; format: cell-based; conditions: Homo sapiens, SGC-7901, 72 h, MTT, 72 hours incubation, SGC-7901 cells; read-out: GI50 SGC-7901
Method in brief: as §1

[19] = test system: U937 (human leukemia cells); assay: MTT cancer cell growth inhibition; format: cell-based; conditions: Homo sapiens, U-937, 72 h, MTT, 72 hours incubation, read-out: GI50 U93
Method in brief: as §1

[20] = test system: lncap (prostate cancer cells); assay: MTT cancer cell growth inhibition; format: cell-based; conditions: Homo sapiens, LNCaP, 72 h, MTT, 72 hours incubation, read-out: GI50 lnca
Method in brief: as §1

| SMILES | IC50 HDAC7 (HDAC7) | GI50 [1] [nM] | GI50 [2] [nM] | GI50 [3] [nM] | GI50 [4] [nM] | GI50 [5] [nM] | GI50 [6] [nM] | GI50 [7] [nM] | GI50 [8] [nM] | GI50 [9] [nM] | GI50 [10] [nM] | GI50 [11] [nM] | GI50 [12] [nM] | GI50 [13] [nM] | GI50 [14] [nM] | GI50 [15] [nM] | GI50 [16] [nM] | GI50 [17] [nM] | GI50 [18] [nM] | GI50 [19] [nM] | further results |
| --- | --- | --- | --- | --- | --- | --- | --- | --- | --- | --- | --- | --- | --- | --- | --- | --- | --- | --- | --- | --- | --- |
| C/C=C1\NC(=O)c2ncc(F)c(n2)CNC(=O)C[C@@H](/C=C/CCSC(C)=O)OC(=O)[C@H](C(C)C)NC1=O [Compound 97] | no activity | 50 | 30 | 59 | 10 | 42 | 39 | 70 | 90 | 13 | 29 | 93 | 26 | 30 | 31 | 20 | 31 | 70 | 24 | 30 | GI50 [20]: 20 nM |
| C/C=C1\NC(=O)c2ccc(F)c(n2)CNC(=O)C[C@@H](/C=C/CCS)OC(=O)[C@H](CCCCNC(=O)OCC2c3ccccc3-c3ccccc32)NC1=O [Compound 122] | no activity | 110 | 20 | 49 | 80 | 55 | 32 | 30 | 50 | 91 | 46 | 38 | 26 | 30 | 32 | 100 | 48 | 30 | 61 | 110 | GI50 [20]: 30 nM |
| CC(=O)SCC/C=C/[C@@H]1CC(=O)NCc2ccc(F)c(n2)C(=O)NC(=C(C)C)C(=O)N[C@@H](C(C)C)C(=O)O1 [Compound 87] | no activity | 30 | 20 | 57 | 20 | 42 | 57 | 50 | 80 | 19 | 27 | 82 | 37 | 30 | 19 | 10 | 21 | 50 | 37 | 40 | GI50 [20]: 10 nM |

Stronger by GI50 [3], values ahead:

| IC50 HDAC7 (HDAC7) | GI50 [1] [nM] | GI50 [2] [nM] | GI50 [3] [nM] | GI50 [4] [nM] | GI50 [5] [nM] | GI50 [6] [nM] | GI50 [7] [nM] | GI50 [8] [nM] | GI50 [9] [nM] | GI50 [10] [nM] | GI50 [11] [nM] | GI50 [12] [nM] | GI50 [13] [nM] | GI50 [14] [nM] | GI50 [15] [nM] | GI50 [16] [nM] | GI50 [17] [nM] | GI50 [18] [nM] | GI50 [19] [nM] | SMILES | further results |
| --- | --- | --- | --- | --- | --- | --- | --- | --- | --- | --- | --- | --- | --- | --- | --- | --- | --- | --- | --- | --- | --- |
| no activity | – | – | 47 | – | 38 | 35 | – | – | 28 | 11 | 41 | 29 | – | 65 | – | 35 | – | 23 | – | C/C=C1\NC(=O)c2ccc(SC)c(n2)CNC(=O)C[C@@H](/C=C/CCSC(=O)CCCCCC)OC(=O)[C@H](C(C)C)NC1=O [Compound 152] | GI50 ([1]; A549 cells): 50 nM; GI50 ([2]; BGC-823 cells): 50 nM; GI50 ([4]; DU145 cells): 60 nM; GI50 ([7]; HT1080 cells): 90 nM; GI50 ([8]; Hela cells): 60 nM; GI50 ([13]; MCF-7 cells): 60 nM; GI50 ([15]; MOLT-4 cells): 90 nM; GI50 ([17]; PANC-1 cells): 50 nM; GI50 ([19]; U937 cells): 50 nM; GI50 ([20]; lncap cells): 60 nM |
| no activity | 40 | 20 | 42 | 20 | 28 | 42 | 40 | 60 | 35 | 28 | 61 | 26 | 20 | 35 | 30 | 22 | 40 | 41 | 20 | C/C=C1\NC(=O)c2nc(ccc2F)CNC(=O)C[C@@H](/C=C/CCSC(C)=O)OC(=O)[C@H](CCCCNC(=O)OCC2c3ccccc3-c3ccccc32)NC1=O [Example 75] | GI50 [20]: 30 nM |
| no activity | 50 | 40 | 34 | 30 | 27 | 34 | 30 | 50 | 38 | 37 | 53 | 62 | 60 | 38 | 30 | 41 | 30 | 51 | 20 | C/C=C1\NC(=O)c2cc(F)cc(n2)CNC(=O)C[C@@H](/C=C/CCSC(=O)CCCCC)OC(=O)[C@H](C(C)C)NC1=O [Example 37] | GI50 [20]: 30 nM |
